From ChEMBL document CHEMBL1201862, “PubChem BioAssay data set” (2004)
Activity calls are given as the source filed them.

Legend:
[1] = biological target: DNA dC->dU-editing enzyme APOBEC-3A (Homo sapiens, UniProt P31941); assay: A3A deaminase inhibition for selectivity – biochemical, dose response (AID 504722); type: functional
[2] = biological target: DNA dC->dU-editing enzyme APOBEC-3G (Homo sapiens, UniProt Q9HC16); assay: Dose Response confirmation of small molecule APOBEC3G DNA Deaminase Inhibitors via a fluorescence-based single-stranded DNA deaminase assay. [Related pubchem assays (depositor defined):AID493012, AID493028]; type: functional
[3] = biological target: Cytochrome P450 2C19 (Homo sapiens, UniProt P33261); assay: Cytochrome panel assay with activity outcomes. Panel member name: p450-cyp2c19 Compounds with AC50 equal or less than 10 uM are considered active; type: functional; conditions: read-out: AC50
[4] = biological target: Cytochrome P450 3A4 (Homo sapiens, UniProt P08684);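 further: CYP3A4 tested as one member of a cytochrome P450 panel screen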
[5] = biological target: T1, Short transient receptor potential channel 4 (Mus musculus, UniProt Q9QUQ5); assay: block of DAMGO-driven TRPC4 calcium entry – cell-based, HEK293 TRPC4/mu-opioid, Fluo-4 calcium, dose response (AID 434942); type: functional;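 further: potency of inhibitors blocking the TRPC4 calcium response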
T1 sequence (Q9QUQ5 whole entry): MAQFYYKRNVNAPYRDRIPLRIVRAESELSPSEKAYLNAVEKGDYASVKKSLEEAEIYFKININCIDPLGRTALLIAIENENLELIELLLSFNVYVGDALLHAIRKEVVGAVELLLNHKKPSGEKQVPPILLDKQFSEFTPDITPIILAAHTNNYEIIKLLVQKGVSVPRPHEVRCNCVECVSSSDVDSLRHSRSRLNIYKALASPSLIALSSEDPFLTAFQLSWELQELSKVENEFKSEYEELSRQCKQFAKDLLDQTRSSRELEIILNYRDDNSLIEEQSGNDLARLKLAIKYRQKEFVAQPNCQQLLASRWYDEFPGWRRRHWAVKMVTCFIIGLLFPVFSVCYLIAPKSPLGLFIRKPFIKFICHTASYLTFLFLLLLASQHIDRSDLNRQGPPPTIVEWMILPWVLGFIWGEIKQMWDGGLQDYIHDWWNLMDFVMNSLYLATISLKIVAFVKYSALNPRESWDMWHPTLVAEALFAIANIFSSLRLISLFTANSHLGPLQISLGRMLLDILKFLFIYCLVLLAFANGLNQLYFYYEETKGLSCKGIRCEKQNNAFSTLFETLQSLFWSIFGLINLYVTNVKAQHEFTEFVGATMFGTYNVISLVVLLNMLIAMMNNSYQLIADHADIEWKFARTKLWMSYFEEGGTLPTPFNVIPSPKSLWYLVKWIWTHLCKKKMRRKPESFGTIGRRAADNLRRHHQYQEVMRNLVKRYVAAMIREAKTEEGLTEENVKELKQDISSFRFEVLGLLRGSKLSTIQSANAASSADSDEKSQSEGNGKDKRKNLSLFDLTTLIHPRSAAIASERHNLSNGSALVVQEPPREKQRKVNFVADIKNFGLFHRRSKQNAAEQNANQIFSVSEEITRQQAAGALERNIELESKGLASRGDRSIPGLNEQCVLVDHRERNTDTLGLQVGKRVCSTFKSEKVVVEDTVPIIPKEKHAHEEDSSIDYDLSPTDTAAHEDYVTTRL

[6] = test system: Vero; assay: cells; type: functional, cell-based; conditions: Chlorocebus sabaeus
[7] = test system: Vero; assay: cells; type: functional; conditions: Chlorocebus sabaeus
[8] = biological target: T2, Cytochrome P450 1A2 (Homo sapiens, UniProt P05177);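 further: PubChem cytochrome P450 panel assay, CYP1A2 panel member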
T2 sequence (P05177 whole entry): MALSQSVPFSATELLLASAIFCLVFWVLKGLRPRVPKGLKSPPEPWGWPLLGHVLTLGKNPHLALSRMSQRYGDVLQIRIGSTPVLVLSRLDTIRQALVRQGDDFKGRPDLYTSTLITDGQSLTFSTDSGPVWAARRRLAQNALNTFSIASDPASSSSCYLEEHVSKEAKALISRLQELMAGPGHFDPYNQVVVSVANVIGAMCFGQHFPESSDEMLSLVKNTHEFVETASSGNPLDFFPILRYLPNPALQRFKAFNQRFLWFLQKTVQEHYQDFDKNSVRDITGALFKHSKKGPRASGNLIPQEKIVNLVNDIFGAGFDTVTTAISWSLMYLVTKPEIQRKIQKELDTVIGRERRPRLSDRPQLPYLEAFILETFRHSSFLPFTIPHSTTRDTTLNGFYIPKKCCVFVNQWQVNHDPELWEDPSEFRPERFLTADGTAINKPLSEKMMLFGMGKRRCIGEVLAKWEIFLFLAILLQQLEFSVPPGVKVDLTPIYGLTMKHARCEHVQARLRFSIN

[9] = biological target: Nucleotide-binding oligomerization domain-containing protein 2 (Homo sapiens, UniProt Q9HC29); assay: inhibition of NOD2-driven NF-kB reporter – cell-based, luminescence, uHTS, HEK293 (AID 1566); type: functional
[10] = test system: HEK293; assay: cells; type: functional, cell-based; conditions: Homo sapiens
[11] = test system: HEK293; assay: NOD2 signaling inhibitors in MDP-stimulated cells, cell-based, uHTS, luminescence (AID 2001); type: functional; conditions: Homo sapiens
[12] = test system: HEK293; assay: cells; type: functional, cell-based; conditions: Homo sapiens; remark: listed apart in the source
[13] = test system: HEK293; assay: inhibition of NOD1-driven NF-kB reporter – cell-based, luminescence, uHTS, primary screen (AID 1578); type: functional; conditions: Homo sapiens

Chain of Cytochrome P450 3A4 (P08684 whole entry): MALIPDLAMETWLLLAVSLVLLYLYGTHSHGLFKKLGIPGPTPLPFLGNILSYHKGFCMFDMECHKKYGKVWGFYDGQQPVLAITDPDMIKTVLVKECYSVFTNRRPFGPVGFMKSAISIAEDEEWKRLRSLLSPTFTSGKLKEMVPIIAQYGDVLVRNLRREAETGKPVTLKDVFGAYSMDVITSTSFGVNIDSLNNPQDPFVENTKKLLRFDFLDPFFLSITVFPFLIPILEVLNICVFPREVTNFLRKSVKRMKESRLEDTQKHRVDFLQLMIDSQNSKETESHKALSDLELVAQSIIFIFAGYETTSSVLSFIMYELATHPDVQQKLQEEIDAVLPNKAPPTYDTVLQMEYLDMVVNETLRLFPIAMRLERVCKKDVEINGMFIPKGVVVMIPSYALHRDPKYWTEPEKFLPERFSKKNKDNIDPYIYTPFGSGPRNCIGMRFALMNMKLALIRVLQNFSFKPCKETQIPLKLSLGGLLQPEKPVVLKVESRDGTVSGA
Chain of Nucleotide-binding oligomerization domain-containing protein 2 (Q9HC29 whole entry, the tested form may be a part): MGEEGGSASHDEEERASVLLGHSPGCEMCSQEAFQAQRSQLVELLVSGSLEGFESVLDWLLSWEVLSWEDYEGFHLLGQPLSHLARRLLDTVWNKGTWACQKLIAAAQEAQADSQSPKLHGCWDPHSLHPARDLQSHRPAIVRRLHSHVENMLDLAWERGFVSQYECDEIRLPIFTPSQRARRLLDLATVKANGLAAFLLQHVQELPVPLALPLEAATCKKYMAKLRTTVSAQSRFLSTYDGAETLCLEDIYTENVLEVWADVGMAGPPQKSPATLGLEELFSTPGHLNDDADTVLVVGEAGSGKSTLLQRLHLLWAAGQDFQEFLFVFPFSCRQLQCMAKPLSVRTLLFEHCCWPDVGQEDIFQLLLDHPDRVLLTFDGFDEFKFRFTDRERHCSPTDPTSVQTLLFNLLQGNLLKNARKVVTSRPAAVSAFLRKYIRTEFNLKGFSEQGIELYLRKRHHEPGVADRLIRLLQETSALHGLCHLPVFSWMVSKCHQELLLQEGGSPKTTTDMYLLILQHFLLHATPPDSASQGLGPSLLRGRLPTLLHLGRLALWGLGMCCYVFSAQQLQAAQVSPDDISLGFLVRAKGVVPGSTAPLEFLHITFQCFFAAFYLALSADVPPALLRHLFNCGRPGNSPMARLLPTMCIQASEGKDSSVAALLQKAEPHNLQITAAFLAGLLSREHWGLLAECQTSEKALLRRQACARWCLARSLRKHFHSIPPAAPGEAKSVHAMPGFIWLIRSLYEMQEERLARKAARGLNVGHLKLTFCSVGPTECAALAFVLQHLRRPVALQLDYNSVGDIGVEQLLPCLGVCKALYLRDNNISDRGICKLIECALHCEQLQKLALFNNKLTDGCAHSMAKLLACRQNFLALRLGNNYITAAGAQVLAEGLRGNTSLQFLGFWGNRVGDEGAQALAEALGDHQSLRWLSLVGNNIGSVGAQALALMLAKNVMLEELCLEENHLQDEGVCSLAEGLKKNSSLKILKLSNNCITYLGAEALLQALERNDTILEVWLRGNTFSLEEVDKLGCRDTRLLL
Chain of Cytochrome P450 2C19 (P33261 whole entry): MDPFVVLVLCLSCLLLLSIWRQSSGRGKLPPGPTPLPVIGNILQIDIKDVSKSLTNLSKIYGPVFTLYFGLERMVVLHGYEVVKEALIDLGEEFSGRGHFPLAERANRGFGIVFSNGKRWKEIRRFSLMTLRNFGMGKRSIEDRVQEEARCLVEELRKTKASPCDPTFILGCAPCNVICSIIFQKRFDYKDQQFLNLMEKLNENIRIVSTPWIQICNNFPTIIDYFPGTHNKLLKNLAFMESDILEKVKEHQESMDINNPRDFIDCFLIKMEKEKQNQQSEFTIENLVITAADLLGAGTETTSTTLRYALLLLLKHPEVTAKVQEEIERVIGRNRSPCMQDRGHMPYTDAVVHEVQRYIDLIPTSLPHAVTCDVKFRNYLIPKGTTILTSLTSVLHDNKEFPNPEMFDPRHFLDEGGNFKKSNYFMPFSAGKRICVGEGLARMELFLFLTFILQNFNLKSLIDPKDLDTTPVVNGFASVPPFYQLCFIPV
Chain of DNA dC->dU-editing enzyme APOBEC-3A (P31941 whole entry): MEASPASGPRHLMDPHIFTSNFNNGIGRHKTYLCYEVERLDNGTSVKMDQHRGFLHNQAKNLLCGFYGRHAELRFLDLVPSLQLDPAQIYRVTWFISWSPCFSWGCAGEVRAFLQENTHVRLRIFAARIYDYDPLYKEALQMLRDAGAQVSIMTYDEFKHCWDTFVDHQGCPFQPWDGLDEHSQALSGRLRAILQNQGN
Chain of DNA dC->dU-editing enzyme APOBEC-3G (Q9HC16 whole entry): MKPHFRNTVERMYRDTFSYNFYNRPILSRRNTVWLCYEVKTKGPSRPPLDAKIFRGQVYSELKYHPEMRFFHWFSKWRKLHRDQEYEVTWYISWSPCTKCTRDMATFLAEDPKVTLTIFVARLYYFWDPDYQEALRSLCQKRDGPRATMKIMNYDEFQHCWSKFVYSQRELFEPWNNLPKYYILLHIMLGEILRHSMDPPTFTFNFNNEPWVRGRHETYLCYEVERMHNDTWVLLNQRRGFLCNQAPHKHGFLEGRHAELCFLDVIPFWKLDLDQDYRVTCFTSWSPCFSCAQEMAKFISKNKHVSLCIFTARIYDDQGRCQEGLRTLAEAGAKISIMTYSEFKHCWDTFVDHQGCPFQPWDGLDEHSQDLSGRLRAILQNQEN

## C=C(C)Cn1c(-c2cccc([N+](=O)[O-])c2)n[nH]c1=S
[1]
  IC50: > 100 µM (inactive)
[2]
  IC50: 5.5 µM (active)

## CCC(C)NC(=O)c1cnn2c(C)c3c(nc12)CCCC3 (configuration not stated)
[3]
  AC50: 31.6 µM (inconclusive)
[4]
  AC50: inconclusive

## Cc1nn(C)c(C)c1Sc1ccc(Br)cc1
[5]
  EC50: 4.73 µM (active)

## Cc1ccc(C(C[N+](=O)[O-])c2c(-c3ccccc3O)n[nH]c2O)cc1 (configuration not stated)
[6]
  IC50: > 25 µM (active)
[7]
  CC50: 9.3 µM (active)

## O=C(Nc1cccc(Cl)c1)N1CCN2C(=O)c3ccccc3C12c1ccccc1 (configuration not stated)
[5]
  EC50: 3.76 µM (active)
[8]
  AC50: 3.16 µM (inconclusive)

## CN1CCN(c2ncc3nc(-c4ccc(Cl)cc4)c(=O)n(Cc4cccs4)c3n2)CC1
[4]
  AC50: inconclusive

## COc1ccc([N+](=O)[O-])cc1NCc1ccco1
[5]
  EC50: 2.99 µM (active)

## CC(=O)c1ccc(-n2c(C)c(C(C)=O)c3cc(O)ccc32)cc1
[9]
  EC50: > 20 µM (inactive)
[10]
  IC50: 1.94 µM (active)
[11]
  IC50: 2.7 µM (active)
[12]
  IC50: > 20 µM (inactive)
[13]
  EC50: > 20 µM (inactive)

## c1ccn2cc(C34CC5CC(CC(C5)C3)C4)nc2c1
[5]
  EC50: 6.68 µM (active)
